Here are results for nine compounds from patent US20240287138A1, “CYCLIC PEPTIDES FOR INHIBITING TNF RECEPTOR 1 ACTIVITY” (Merck Sharp & Dohme LLC, priority 2023, published 2024).

SMILES strings stand for the structures. pIC50, pKd: −log10 of the molar value. Numbered stars: 1 amine (or outer) side, 2 acyl side, 3 side chain; on linkers, the order of the positions; unused ones are H or OH. Bridge positions count the residues as written; N and C are the ends. Square brackets hold non-standard residues; d marks the D form. Peptide text beside a SMILES is read from it. Trp(βS-Me,7-OMe) = COc1cccc2c([C@H](C)[C@H](N)C(=O)O)c[nH]c12; Trp(βS-Me) = C[C@@H](c1c[nH]c2ccccc12)[C@H](N)C(=O)O; Phe(4-SO3H) = N[C@@H](Cc1ccc(S(=O)(=O)O)cc1)C(=O)O; Phe(4-NHCONH2) = NC(=O)Nc1ccc(C[C@H](N)C(=O)O)cc1; Trp(7-CN) = N#Cc1cccc2c(C[C@H](N)C(=O)O)c[nH]c12; Trp(7-Cl) = N[C@@H](Cc1c[nH]c2c(Cl)cccc12)C(=O)O; Ala(piperazin-1-yl) = N[C@@H](CN1CCNCC1)C(=O)O; Phe(4-CONH2) = NC(=O)c1ccc(C[C@H](N)C(=O)O)cc1; Phe(4-COOH) = N[C@@H](Cc1ccc(C(=O)O)cc1)C(=O)O; 4Pal(3S-Me) = C[C@@H](c1ccncc1)[C@H](N)C(=O)O; Trp(7-aza) = N[C@@H](Cc1c[nH]c2ncccc12)C(=O)O; Phe(4-CH2NH2) = NCc1ccc(C[C@H](N)C(=O)O)cc1; Pip(5R-OH) = O=C(O)[C@@H]1CC[C@@H](O)CN1; αMeW = C[C@](N)(Cc1c[nH]c2ccccc12)C(=O)O; Lys(N3) = [N-]=[N+]=NCCCC[C@H](N)C(=O)O; X1 = O=C([C@@H]1CC[C@H](N[*:1])C1)[*:2]; dPro(3S-OH) = O=C(O)[C@@H]1NCC[C@@H]1O; 2Nal = N[C@@H](Cc1ccc2ccccc2c1)C(=O)O; X68 = O=C([C@@H]1CSCCN1[*:1])[*:2]; Pip(4-aza) = O=C(O)[C@@H]1CNCCN1; 3Pal = N[C@@H](Cc1cccnc1)C(=O)O; 4Pal = N[C@@H](Cc1ccncc1)C(=O)O; NMeE = CN[C@@H](CCC(=O)O)C(=O)O; dHyp = O=C(O)[C@H]1C[C@H](O)CN1; X7 = CC[C@@H](C(=O)[*:1])[*:2]; X61 = O=C(CN(CCCO)[*:1])[*:2]; Ahp(2) = CCCCC[C@H](N)C(=O)O; Pip = O=C(O)[C@@H]1CCCCN1; αMeS = C[C@](N)(CO)C(=O)O; Nle = CCCC[C@H](N)C(=O)O; Dap = NC[C@H](N)C(=O)O; Sar = CNCC(=O)O

The test concerns the target T1, human soluble TNFR1 (sTNFR1) (Homo sapiens, UniProt P19438).
T1 construct: made in house; host or cells: Sf21 (baculovirus)
T1 sequence (P19438 with tags, fused parts or gaps): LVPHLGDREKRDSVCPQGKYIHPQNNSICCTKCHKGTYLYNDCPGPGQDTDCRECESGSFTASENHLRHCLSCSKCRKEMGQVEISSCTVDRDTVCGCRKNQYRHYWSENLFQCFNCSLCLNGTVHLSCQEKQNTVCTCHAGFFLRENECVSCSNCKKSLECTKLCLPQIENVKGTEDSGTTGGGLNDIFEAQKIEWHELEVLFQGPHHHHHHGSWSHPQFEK
As to the kind of experiment: Human sTNFR1-peptide displacement assay (LanthaScreen Eu TR-FRET binding assay). Here is the method:
A. Procedure for Human sTNFR1-Peptide Displacement Assay
The affinity was determined using LanthaScreen Eu-based time-resolved fluorescence resonance energy transfer (TR-FRET)-based binding assay.
A TR-FRET assay measuring the displacement of biotinylated peptide SEQ ID NO. 1 from human soluble TNFR1 (sTNFR1) in a pre-formed complex by a macrocyclic peptide yields the affinity (Kd^app) of the cyclic peptide for sTNFR1. The reagents for the assay include: the C′-terminally 6His-tagged sTNFR1 (residues 1-211) protein purified from a Sf21 baculovirus expression system, the biotin-tagged B0372 peptide described in section “Preparation of Final Compounds”, part E, the LanthaScreen™ anti-His Tag Europium donor (Life Technologies Corporation (San Diego, CA), cat. #PV5597), and a streptavidin-conjugate Alexa Fluor™ 647 acceptor (Invitrogen (Waltham, MA), cat. #S32357). Time-resolved TR-FRET is achieved when sTNFR1 is bound to biotinylated peptide SEQ ID NO. 1 through coupling of the donor and acceptor FRET pair.
100 nM biotinylated peptide SEQ ID NO. […] 100 nM biotinylated peptide SEQ ID NO. 1 was chosen as it reflects the ˜Kd for this complex. After 30 min at ambient temperature, each test peptide (2 mM stock in DMSO) is titrated in a 20 point, ˜3-fold discrete dose-response using an acoustic-dispense liquid handler. Specifically, 80 nL of peptide/DMSO is transferred into a ProxiPlate-384 Plus 384-well assay plate (PerkinElmer, cat. #6008289). To this plate, 8 μL of the previously formed sTNFR 1-biotinylated peptide SEQ ID NO. 1 complex is added and allowed to reach binding equilibrium with the test peptide at ambient temperature for 90 min.
The TR-FRET signal is measured with the following EnVision® settings: excitation laser at 337 nm; emission1=615 nm, emission2=665 nm, LANCE/DELFIA dichroic mirror, delay time=[…]. The signal of each well is determined as the ratio of the emission at 665 nm to that at 615 nm. Percent displacement is determined by normalization to control wells containing DMSO (0%) or a saturating concentration of a displaceable peptide (100%). The %-effect as a function of peptide concentration is fit to a five-parameter logistic fit based on the Morrison equation to account for tight binding kinetics.
(In general: In TR-FRET formats the signal depends on donor and acceptor labels being close together.)
Take `CCCC[C@@H]1NC(=O)[C@@H]2CC[C@@H](C2)NC(=O)[C@H]([C@@H](C)c2c[nH]c3c(OC)cccc23)NC(=O)CN(C)C(=O)[C@H](Cc2ccc(O)cc2)NC(=O)[C@H](Cc2ccc(C(N)=O)cc2)NC(=O)[C@](C)(CO)NC(=O)[C@H](Cc2c[nH]c3c(Cl)cccc23)NC(=O)[C@H](Cc2ccc(NC(N)=O)cc2)NC(=O)[C@H](CC(N)=O)NC(=O)[C@H](CCC(=O)O)N(C)C(=O)[C@H](Cc2c[nH]c3ccccc23)NC(=O)[C@@H]2CC[C@@H](O)CN2C(=O)[C@H](Cc2ccncc2)NC1=O` [SEQ ID NO. 165] (cyclo([4Pal][Pip(5R-OH)]W[NMeE]N[Phe(4-NHCONH2)][Trp(7-Cl)][αMeS][Phe(4-CONH2)]Y[Sar][Trp(βS-Me,7-OMe)][X1][Nle])): the pKd (usually −log10 of the Kd, conventionally taken in molar units) was 9.74.
In the case of `CCCC[C@@H]1NC(=O)CSC[C@@H](C(N)=O)NC(=O)[C@H]([C@@H](C)c2c[nH]c3c(OC)cccc23)NC(=O)CN(C)C(=O)[C@H](Cc2ccc(O)cc2)NC(=O)[C@H](Cc2ccc(C(=O)O)cc2)NC(=O)[C@](C)(CO)NC(=O)[C@H](Cc2c[nH]c3c(Cl)cccc23)NC(=O)[C@H](Cc2ccncc2)NC(=O)[C@H](CC(N)=O)NC(=O)CN(CCCO)C(=O)[C@H](Cc2c[nH]c3ncccc23)NC(=O)[C@@H]2CCCCN2C(=O)[C@H](Cc2ccncc2)NC1=O` [SEQ ID NO. 170] ({CH2CO}-[Nle][4Pal][Pip][Trp(7-aza)][X61]N[4Pal][Trp(7-Cl)][αMeS][Phe(4-COOH)]Y[Sar][Trp(βS-Me,7-OMe)]C-NH2; thioether N-14), the pIC50 (usually the negative decadic logarithm of the IC50, by convention in mol/L) was 9.22 and the pKd was 9.25.
With `CCCC[C@@H]1NC(=O)[C@@H]2CC[C@@H](C2)NC(=O)[C@H]([C@@H](C)c2c[nH]c3c(OC)cccc23)NC(=O)CN(C)C(=O)[C@H](Cc2ccc(O)cc2)NC(=O)[C@H](Cc2ccc(C(=O)O)cc2)NC(=O)[C@](C)(CO)NC(=O)[C@H](Cc2c[nH]c3c(Cl)cccc23)NC(=O)[C@H](Cc2ccc(S(=O)(=O)O)cc2)NC(=O)[C@H](CC(N)=O)NC(=O)[C@H](CCC(=O)O)N(C)C(=O)[C@H](Cc2c[nH]c3ccccc23)NC(=O)[C@@H]2CNCCN2C(=O)[C@H](Cc2ccncc2)NC1=O` [SEQ ID NO. 173] (cyclo([4Pal][Pip(4-aza)]W[NMeE]N[Phe(4-SO3H)][Trp(7-Cl)][αMeS][Phe(4-COOH)]Y[Sar][Trp(βS-Me,7-OMe)][X1][Nle])), the pKd is 9.59.
Still for that read-out and setting: for `CCCC[C@@H]1NC(=O)[C@@H]2CC[C@@H](C2)NC(=O)[C@H]([C@@H](C)c2c[nH]c3c(OC)cccc23)NC(=O)CN(C)C(=O)[C@H](Cc2ccc(O)cc2)NC(=O)[C@H](Cc2ccc(C(=O)O)cc2)NC(=O)[C@](C)(CO)NC(=O)[C@H](Cc2c[nH]c3c(Cl)cccc23)NC(=O)[C@H](Cc2ccncc2)NC(=O)[C@H](CC(N)=O)NC(=O)[C@H]2[C@@H](O)CCN2C(=O)[C@H](Cc2c[nH]c3ccccc23)NC(=O)[C@@H]2CNCCN2C(=O)[C@H](Cc2ccncc2)NC1=O` [SEQ ID NO. 192] (cyclo([4Pal][Trp(7-Cl)][αMeS][Phe(4-COOH)]Y[Sar][Trp(βS-Me,7-OMe)][X1][Nle][4Pal][Pip(4-aza)]W[dPro(3S-OH)]N)) the value was 9.62.
For `CCCCC[C@@H]1NC(=O)CSC[C@@H](C(N)=O)NC(=O)[C@](C)(Cc2c[nH]c3ccccc23)NC(=O)CN(C)C(=O)[C@H](Cc2cccnc2)NC(=O)[C@H](Cc2ccc(C(=O)O)cc2)NC(=O)[C@](C)(CO)NC(=O)[C@H](Cc2c[nH]c3c(Cl)cccc23)NC(=O)[C@H](Cc2ccncc2)NC(=O)[C@H](CC(N)=O)NC(=O)[C@H]2CCCN2C(=O)[C@H]([C@@H](C)c2c[nH]c3ccccc23)NC(=O)[C@H](CN2CCNCC2)NC(=O)[C@H](Cc2ccc(O)cc2)NC1=O` [SEQ ID NO. 226] ({CH2CO}-[Ahp(2)]Y[Ala(piperazin-1-yl)][Trp(βS-Me)][dP]N[4Pal][Trp(7-Cl)][αMeS][Phe(4-COOH)][3Pal][Sar][αMeW]C-NH2; thioether N-14), the negative-log IC50 (pIC50) was 8.94.
With `CCCCC[C@@H]1NC(=O)[C@@H]2CC[C@@H](C2)NC(=O)[C@H]([C@@H](C)c2c[nH]c3c(OC)cccc23)NC(=O)CN(C)C(=O)[C@H](Cc2ccc(C(N)=O)cc2)NC(=O)[C@H](Cc2ccc(C(N)=O)cc2)NC(=O)[C@](C)(CO)NC(=O)[C@H](Cc2c[nH]c3c(C#N)cccc23)NC(=O)[C@H](Cc2ccc(C(=O)O)cc2)NC(=O)[C@H](CC(N)=O)NC(=O)[C@H]2C[C@H](O)CN2C(=O)[C@H](Cc2c[nH]c3ccccc23)NC(=O)[C@H]([C@@H](C)O)NC(=O)[C@H]([C@@H](C)c2ccncc2)NC1=O` [SEQ ID NO. 234] (cyclo([Ahp(2)][4Pal(3S-Me)]TW[dHyp]N[Phe(4-COOH)][Trp(7-CN)][αMeS][Phe(4-CONH2)][Phe(4-CONH2)][Sar][Trp(βS-Me,7-OMe)][X1])), the negative logarithm of the Kd (pKd) is 9.62.
`CCCCC[C@@H]1NC(=O)CSC[C@@H](C(N)=O)NC(=O)[C@](C)(Cc2c[nH]c3ccccc23)NC(=O)CN(C)C(=O)[C@H](Cc2c[nH]cn2)NC(=O)[C@H](Cc2ccc(C(=O)O)cc2)NC(=O)[C@](C)(CO)NC(=O)[C@H](Cc2ccc3ccccc3c2)NC(=O)[C@H](Cc2ccc(C(=O)O)cc2)NC(=O)[C@H](CC(N)=O)NC(=O)[C@H]2CCCN2C(=O)[C@H]([C@@H](C)c2c[nH]c3ccccc23)NC(=O)[C@H](CO)NC(=O)[C@H](Cc2ccncc2)NC1=O` [SEQ ID NO. 237] ({CH2CO}-[Ahp(2)][4Pal]S[Trp(βS-Me)][dP]N[Phe(4-COOH)][2Nal][αMeS][Phe(4-COOH)]H[Sar][αMeW]C-NH2; thioether N-14) showed a pIC50 of 7.88.
`C[C@@H](c1c[nH]c2ccccc12)[C@@H]1NC(=O)[C@H](CN)NC(=O)[C@H](Cc2ccncc2)NC(=O)[C@H](CCCCN=[N+]=[N-])NC(=O)CSC[C@@H](C(N)=O)NC(=O)[C@](C)(Cc2c[nH]c3ccccc23)NC(=O)CN(C)C(=O)[C@H](Cc2ccc(CN)cc2)NC(=O)[C@H](Cc2ccc(C(=O)O)cc2)NC(=O)[C@](C)(CO)NC(=O)[C@H](Cc2c[nH]c3c(Cl)cccc23)NC(=O)[C@H](Cc2ccncc2)NC(=O)[C@H](CC(N)=O)NC(=O)[C@H]2CCCN2C1=O` [SEQ ID NO. 245] ({CH2CO}-[Lys(N3)][4Pal][Dap][Trp(βS-Me)][dP]N[4Pal][Trp(7-Cl)][αMeS][Phe(4-COOH)][Phe(4-CH2NH2)][Sar][αMeW]C-NH2; thioether N-14) gave a pIC50 of 9.02.
The same measure, in the same setting: the same measure for `CCCC[C@@H]1NC(=O)[C@H](CC)SC[C@@H](C(N)=O)NC(=O)[C@H]([C@@H](C)c2c[nH]c3c(OC)cccc23)NC(=O)CN(C)C(=O)[C@H](Cc2ccc(O)cc2)NC(=O)[C@H](Cc2ccc(C(N)=O)cc2)NC(=O)[C@](C)(CO)NC(=O)[C@H](Cc2c[nH]c3c(Cl)cccc23)NC(=O)[C@H](Cc2ccncc2)NC(=O)[C@H](CC(N)=O)NC(=O)[C@H](CCC(=O)O)N(C)C(=O)[C@H](Cc2c[nH]c3ccccc23)NC(=O)[C@@H]2CSCCN2C(=O)[C@H](Cc2ccncc2)NC1=O` [SEQ ID NO. 246] ([Nle][4Pal][X68]W[NMeE]N[4Pal][Trp(7-Cl)][αMeS][Phe(4-CONH2)]Y[Sar][Trp(βS-Me,7-OMe)]C-NH2; linker N-14 via X7): 8.94.
